Reference: publication PMC10178204, “Peptaibol Analogs Show Potent Antibacterial Activity against Multidrug Resistant Opportunistic Pathogens” (International Journal of Molecular Sciences, 2023)
Values after ≈ are worked out from the molar mass of the structure shown. Like-named read-outs stand apart in the source and are kept apart here. Non-standard residues stand in square brackets, D forms with d. Residues, ends and D or L forms follow the SMILES beside them. *: point of attachment. Leu(ol) = CC(C)C[C@H](N)CO; Octanoyl = CCCCCCCC(=O)*; Aib = CC(C)(N)C(=O)O

Legend:
[1] = test system: Acinetobacter baumannii ATCC 17978; conditions: for MIC Aba: MHB, 5 × 10^5 CFU/mL, 18 h, 35 °C, triplicate
Description: (§1) The antibacterial activity of the peptides was initially assessed on a panel of representative Gram-positive and Gram-negative organisms of high clinical relevance and commonly responsible for bacterial infections in both animals and humans. Bacillus subtilis ATCC 6633 (Bsu) was also included as a rod-shaped model Gram-positive organism. This first panel comprised: Enterococcus faecalis ATCC 29212 (Efa); Streptococcus pyogenes ATCC 12344 (Spy); and Staphylococcus aureus ATCC 25923 (Sau); Gram-negative: Escherichia coli CCUGT (Eco), Klebsiella pneumoniae ATCC 13833 (Kpn), Acinetobacter baumannii ATCC 17978 (Aba), and Pseudomonas aeruginosa ATCC 27853 (Pae) (Table 2). Both the minimum inhibitory concentration (MIC, Table 2) and the minimum bactericidal concentration (MBC, Table S1, Supporting Material) were determined.
(§2) The minimum inhibitory concentration (MIC) and the minimum bactericidal concentration (MBC) of the compounds were determined in triplicate using Mueller–Hinton broth (MHB). […] Therefore, we decided to dissolve all peptides in DMSO to a final concentration of 25 mg/mL, for consistency. The bacteria inoculum was 5 × 10^5 CFU/mL, as recommended by CLSI (Document M07-A10, 2015). […] Reference-type strains, including representatives of both Gram-positive bacteria (Bacillus subtilis ATCC 6633, Enterococcus faecalis ATCC 29212, Staphylococcus aureus ATCC 25923, the methicillin-resistant Staphylococcus aureus ATCC 43300 (MRSA), Streptococcus pyogenes ATCC 12344) and Gram-negative bacteria (Escherichia coli CCUGT, Klebsiella pneumoniae ATCC 13833, Pseudomonas aeruginosa ATCC 27853, and Acinetobacter baumannii ATCC 17978), were acquired from ATCC or CCUG culture collections. Other antibiotic-resistant clinical isolates were present in our collection at the University Teaching Hospital (Azienda Ospedaliero-Universitaria Senese ‘Santa Maria alle Scotte’) in Siena, Tuscany, Italy. Specifically, MDR carbapenem-hydrolyzing class D β-lactamase-producing Acinetobacter baumannii and metallo-β-lactamase-producing Pseudomonas aeruginosa were used in this study (Table 4).

[2] = test system: Enterococcus faecalis ATCC 29212
Description: as §1, §2

[3] = test system: Bacillus subtilis ATCC 6633
Description: as §1, §2

Escherichia coli CCUGT = conditions: 18 h; for MIC Eco: MHB, 5 × 10^5 CFU/mL, 35 °C, triplicate
Description: as §1, §2

[4] = test system: Streptococcus pyogenes ATCC 12344
Description: as §1, §2

[5] = test system: Staphylococcus aureus ATCC 25923; conditions: for MIC Sau: MHB, 5 × 10^5 CFU/mL, 18 h, 35 °C, triplicate
Description: as §1, §2

[6] = test system: Klebsiella pneumoniae ATCC 13833; conditions: for MIC Kpn: MHB, 5 × 10^5 CFU/mL, 18 h, 35 °C, triplicate
Description: as §1, §2

[7] = test system: Pseudomonas aeruginosa ATCC 27853; conditions: for MIC Pae: MHB, 5 × 10^5 CFU/mL, 18 h, 35 °C, triplicate
Description: as §1, §2

[8] = test system: blood agar plate (Columbia CNA Agar); assay: Hemolysis on blood agar plate; conditions: 35 ± 2 °C, 24 h; for Hemolysis (class): 50 μg peptide (2 μL of 25 mg/mL in DMSO) spotted on blood agar, visual, triplicate
Procedure: Hemolysis zones were visually determined and measured. […] For two additional peptides (6 and 15), only a small hemolysis zone (diameter 4–5 mm) was visible, as compared to that of the positive control (Triton X-100, 13 mm).
Briefly, 2 μL of each peptide solution in DMSO (25 mg/mL), corresponding to 50 μg, was spotted on the surface of a blood agar plate (Columbia CNA Agar, Becton Dickinson Italia S.p.A., Florence, Italy). The plate was then incubated at 35 ± 2 °C for 24 h and visually inspected for the presence of hemolysis zones (see Figure S13, Supplementary Material). The experiment was performed in triplicate. Table 2 reports the average value of the diameter of hemolysis zones measured in each individual experiment. Triton X-100 was used as a positive control (diameter of the hemolysis zone: 13 mm), while DMSO was used as a negative control.
Figure S13. Implementation of the hemolysis test as described in Bechlars et al.. After spotting
2 µL (50 µg) of each compound at a random location on the blood agar plate and incubation at 35 ±
2 °C for 24 h, the plates were manually inspected for the presence of hemolysis zones. Triton X-100
and DMSO were used as the positive and negative controls, respectively. Results were interpreted
(1 picture or pasted object on this page, not shown here)

[9] = MHB, 5 × 10^5 CFU/mL, 18 h, 35 °C, triplicate

CCCCCCCC(=O)NC(C)(C)C(=O)NCC(=O)N[C@@H](CC(C)C)C(=O)NC(C)(C)C(=O)NCC(=O)NCC(=O)N[C@@H](CC(C)C)C(=O)NC(C)(C)C(=O)NCC(=O)N[C@H](C(=O)N[C@H](CO)CC(C)C)[C@@H](C)CC [Peptide 0, Trichogin GA IV, reference compound] (Octanoyl-[Aib]GL[Aib]GGL[Aib]GI[Leu(ol)])
MIC Aba [1]: > 128 µg/mL
MBC Efa [2, 9]: 32 µg/mL (≈ 30 µM)
MIC Efa [2, 9]: 16 µg/mL (≈ 15 µM)
MBC Bsu [3, 9]: 32 µg/mL (≈ 30 µM)
MIC Bsu [3, 9]: 16 µg/mL (≈ 15 µM)
MIC Eco (Escherichia coli CCUGT): > 128 µg/mL
MBC Spy [4, 9]: 16 µg/mL (≈ 15 µM)
MIC Spy [4, 9]: 16 µg/mL (≈ 15 µM)
MIC Sau [5]: > 128 µg/mL
MIC Kpn [6]: > 128 µg/mL
MIC Pae [7]: > 128 µg/mL
Hemolysis (class) [8]: -

CCCCCCCC(=O)NC(C)(C)C(=O)NCC(=O)N[C@@H](CC(C)C)C(=O)N[C@@H](CC(C)C)C(=O)NCC(=O)NCC(=O)N[C@@H](CC(C)C)C(=O)NC(C)(C)C(=O)NCC(=O)N[C@H](C(=O)N[C@@H](CC(C)C)C(N)=O)[C@@H](C)CC [Peptide 3, 1-Oct-Aib-Gly-Leu-Leu-Gly-Gly-Leu-Aib-Gly-Ile-Leu-NH2] (Octanoyl-[Aib]GLLGGL[Aib]GIL-NH2)
MIC Aba [1]: > 128 µg/mL
MIC Efa [2, 9]: > 128 µg/mL
MIC Bsu [3, 9]: > 128 µg/mL
MIC Eco (Escherichia coli CCUGT): > 128 µg/mL
MIC Spy [4, 9]: > 128 µg/mL
MIC Sau [5]: > 128 µg/mL
MIC Kpn [6]: > 128 µg/mL
MIC Pae [7]: > 128 µg/mL
Hemolysis (class) [8]: -
Hemolytic activity (in words) ([8]; 50 μg spotted on blood agar): no hemolysis detected

CCCCCCCC(=O)NC(C)(C)C(=O)N[C@@H](CCCCN)C(=O)N[C@@H](CCCCN)C(=O)N[C@@H](CC(C)C)C(=O)NC(C)(C)C(=O)NCC(=O)N[C@H](C(=O)N[C@@H](CC(C)C)C(N)=O)[C@@H](C)CC [Peptide 12, 1-Oct-Aib-Lys-Lys-Leu-Aib-Gly-Ile-Leu-NH2] (Octanoyl-[Aib]KKL[Aib]GIL-NH2)
MBC Aba ([1]; ATCC 17978, 18 h): 32 µg/mL (≈ 33.1 µM)
MIC Aba [1]: 32 µg/mL (≈ 33.1 µM)
MBC Efa ([2]; ATCC 29212, 18 h): 32 µg/mL (≈ 33.1 µM)
MIC Efa [2, 9]: 32 µg/mL (≈ 33.1 µM)
MBC Bsu ([3]; ATCC 6633, 18 h): 16 µg/mL (≈ 16.6 µM)
MIC Bsu [3, 9]: 4 µg/mL (≈ 4.14 µM)
MBC Eco (Escherichia coli CCUGT; CCUGT): 64 µg/mL (≈ 66.2 µM)
MIC Eco (Escherichia coli CCUGT): 16 µg/mL (≈ 16.6 µM)
MBC Spy ([4]; ATCC 12344, 18 h): 16 µg/mL (≈ 16.6 µM)
MIC Spy [4, 9]: 16 µg/mL (≈ 16.6 µM)
MBC Sau ([5]; ATCC 25923, 18 h): 16 µg/mL (≈ 16.6 µM)
MIC Sau [5]: 16 µg/mL (≈ 16.6 µM)
MBC Kpn ([6]; ATCC 13833, 18 h): > 128 µg/mL
MIC Kpn [6]: 64 µg/mL (≈ 66.2 µM)
MBC Pae ([7]; ATCC 27853, 18 h): > 128 µg/mL
MIC Pae [7]: 64 µg/mL (≈ 66.2 µM)

CCCCCCCC(=O)NC(C)(C)C(=O)N[C@@H](CCCCN)C(=O)N[C@@H](CCCCN)C(=O)N[C@@H](CC(C)C)C(=O)N[C@@H](CC(C)C)C(N)=O [Peptide 13, 1-Oct-Aib-Lys-Lys-Leu-Leu-NH2] (Octanoyl-[Aib]KKLL-NH2)
MIC Aba [1]: > 128 µg/mL
MIC Efa [2, 9]: > 128 µg/mL
MBC Bsu ([3]; ATCC 6633, 18 h): 64 µg/mL (≈ 90 µM)
MIC Bsu [3, 9]: 32 µg/mL (≈ 45 µM)
MIC Eco (Escherichia coli CCUGT): > 128 µg/mL
MIC Spy [4, 9]: > 128 µg/mL
MIC Sau [5]: > 128 µg/mL
MIC Kpn [6]: > 128 µg/mL
MIC Pae [7]: > 128 µg/mL

CCCCCCCC(=O)N[C@@H](CC(C)C)C(=O)NC(C)(C)C(=O)N[C@@H](CCCCN)C(=O)N[C@H](C(N)=O)[C@@H](C)CC [Peptide 14, 1-Oct-Leu-Aib-Lys-Ile-NH2] (Octanoyl-L[Aib]KI-NH2)
MIC Aba [1]: > 128 µg/mL
MIC Efa [2, 9]: > 128 µg/mL
MIC Bsu [3, 9]: > 128 µg/mL
MIC Eco (Escherichia coli CCUGT): > 128 µg/mL
MIC Spy [4, 9]: > 128 µg/mL
MIC Sau [5]: > 128 µg/mL
MIC Kpn [6]: > 128 µg/mL
MIC Pae [7]: > 128 µg/mL

CCCCCCCC(=O)N[C@@H](CC(C)C)C(=O)NC(C)(C)C(=O)N[C@@H](CCCCN)C(=O)N[C@@H](CC(C)C)C(N)=O [Peptide 16, 1-Oct-Leu-Aib-Lys-Leu-NH2] (Octanoyl-L[Aib]KL-NH2)
MIC Aba [1]: > 128 µg/mL
MIC Efa [2, 9]: > 128 µg/mL
MIC Bsu [3, 9]: > 128 µg/mL
MIC Eco (Escherichia coli CCUGT): > 128 µg/mL
MIC Spy [4, 9]: > 128 µg/mL
MIC Sau [5]: > 128 µg/mL
MIC Kpn [6]: > 128 µg/mL
MIC Pae [7]: > 128 µg/mL

CCCCCCCC(=O)N[C@@H](CCCCN)C(=O)N[C@@H](CC(C)C)C(=O)NC(C)(C)C(=O)N[C@@H](CC(C)C)C(N)=O [Peptide 17, 1-Oct-Lys-Leu-Aib-Leu-NH2] (Octanoyl-KL[Aib]L-NH2)
MIC Aba [1]: > 128 µg/mL
MIC Efa [2, 9]: > 128 µg/mL
MIC Bsu [3, 9]: > 128 µg/mL
MIC Eco (Escherichia coli CCUGT): > 128 µg/mL
MIC Spy [4, 9]: > 128 µg/mL
MIC Sau [5]: > 128 µg/mL
MIC Kpn [6]: > 128 µg/mL
MIC Pae [7]: > 128 µg/mL

CCCCCCCC(=O)N[C@@H](CC(C)C)C(=O)N[C@@H](CCCCN)C(=O)NC(C)(C)C(=O)N[C@@H](CC(C)C)C(N)=O [Peptide 18, 1-Oct-Leu-Lys-Aib-Leu-NH2] (Octanoyl-LK[Aib]L-NH2)
MIC Aba [1]: > 128 µg/mL
MIC Efa [2, 9]: > 128 µg/mL
MBC Bsu ([3]; ATCC 6633, 18 h): > 128 µg/mL
MIC Bsu [3, 9]: 128 µg/mL (≈ 220 µM)
MIC Eco (Escherichia coli CCUGT): > 128 µg/mL
MIC Spy [4, 9]: 128 µg/mL (≈ 220 µM)
MIC Sau [5]: > 128 µg/mL
MIC Kpn [6]: > 128 µg/mL
MIC Pae [7]: > 128 µg/mL

Triton X-100 [reference compound]
Hemolysis (d, diameter of hemolysis zone) ([8]; 50 μg spotted on blood agar, average of triplicate): 13 mm
